One data set deals with ICR mice. The data set is described as follows: EPO protein expression in mice after intravenous EPO mRNA lipid nanoparticles. The format is in vivo. To be noted: mRNA 0.1 mg/kg, plasma 6 hours after administration, neutral lipid DSPC, Lipid/Nucleic acid (wt/wt) 20, Comparative Example 1 is 1. The method, then: (§1) The compounds described in Table 1, the neutral lipid, cholesterol (product name: Cholesterol HP; NIPPON FINE CHEMICAL CO., LTD.), and 1,2-dimyristoyl-rac-glycero-3-(methylpolyoxyethylene 2000) (hereinafter, called DMG-PEG2000) (product name: SUNBRIGHT® GM-020; NOF corporation) were dissolved in ethanol at a molar ratio of ionized lipid:neutral lipid:cholesterol:DMG-PEG2000=50:10:38.5:1.5 mol % such that the total lipid concentration was 12.5 mmol/L, to obtain an oil phase.
(§2) As the neutral lipid, 1,2-distearoyl-sn-glycero-3-phosphocholine (product name: COATSOME® MC-8080; NOF corporation) (hereinafter, DSPC), or L-α-dioleoylphosphatidylethanolamine (hereinafter, DOPE) (product name: COATSOME® MC-8181; NOF corporation) was used.
(§3) EPO mRNA (product name: CleanCap EPO mRNA (5 moU); TriLink) was diluted with 50 mmol/L citrate buffer having a pH 4.0 such that the weight ratio of total lipid concentration to mRNA concentration is about 20:1 to 64:1, thereby obtaining a water phase. Then, the water phase and the oil phase were mixed together using NanoAssemblr (Precision NanoSystems) such that the volume ratio of water phase:oil phase was 3:1. The mixed solution was diluted 2-fold with any of phosphate buffered physiological saline (PBS), water, or a 20 mmol/L Tris buffer solution (pH 7.4) to obtain a dispersion liquid of mRNA lipid nanoparticles. The dispersion liquid was dialyzed with 20 mmol/L Tris buffer solution (pH 7.4) containing 8% sucrose using a dialysis cassette (Slide-A-Lyzer G2, MWCO: 10 kD, Thermo Fisher Scientific) to remove ethanol, thereby obtaining EPO mRNA-encapsulating lipid nanoparticles.
The dispersion liquid of mRNA lipid nanoparticles prepared in above <Preparation of EPO mRNA-encapsulating lipid nanoparticles> was intravenously administered to ICR mice at a mRNA dosage of 0.1 mg/kg. 6 hours after the administration, blood was collected from the caudal vena cava, thereby obtaining plasma. The human EPO […] was quantified by using the obtained blood plasma and Erythropoietin (EPO) Human Elisa Kit (Abcam.plc). The quantitative value is described as a relative amount of EPO protein in a case where Comparative Example 1 is 1.

Data set [1] can be described thus: Particle size of EPO mRNA-encapsulating lipid nanoparticles. The data set is classed as physicochemical. The following applies: LNP with neutral lipid DSPC; mixed solution PBS; Lipid/Nucleic acid (wt/wt) 20. The protocol: as §1, §2, §3
The particle size of the mRNA-encapsulating lipid nanoparticles was measured by 5-fold diluting the dispersion liquid of lipid nanoparticle with phosphate buffered physiological saline (PBS) using a particle size measurement device NanoSaqla (Otsuka Electronics Co., Ltd.).

The subject of another data set is EPO mRNA. Put plainly: mRNA encapsulation rate of mRNA lipid nanoparticles. The format is physicochemical. The following applies: LNP with neutral lipid DSPC; mixed solution PBS; Lipid/Nucleic acid (wt/wt) 20. The protocol: as §1, §2, §3
EPO mRNA was diluted with MilliQ water to prepare a diluted sample in 2-fold dilution series from 100 µg/mL to […], and a calibration curve solution was prepared. 50 μL of the calibration curve solution or the mRNA lipid nanoparticles was mixed with 450 μL of methanol to prepare a measurement solution.
The absorbance of each measurement solution at 260 nm and 330 nm was measured using a UV plate reader (Multiskan Go, Thermo Fisher Scientific), the absorbance at 330 nm was subtracted from the absorbance at 260 nm, and the result was defined as the absorbance of each measurement solution. The total […] nucleic acid concentration was calculated from the calibration curve using the absorbance of each sample measurement solution.
The concentration of the outer water phase nucleic acid was quantified by a standard addition method using a QuanT-iT RiboGreen RNA Assay Kit (Thermo Fisher Scientific). First, a 20× TE buffer included in the above kit was diluted with water, thereby obtaining a 1×TE buffer. TE represents Tris/EDTA (ethylenediaminetetraacetic acid). EPO mRNA was diluted with a TE buffer such that the final concentration was 0 to 400 ng/mL to prepare a nucleic acid diluted series. 10 μL of mRNA lipid nanoparticles diluted 5-fold with TE buffer and 90 µL of a nucleic acid dilution series were mixed in a 96-well plate, 100 μL of a Ribogreen reagent diluted 200-fold with TE buffer was added to each well, and then fluorescence (excitation wavelength: 485 nm, fluorescence wavelength: 535 nm) was measured using a fluorescence plate reader (Infinite 200 Pro M nano+, TECAN). From the obtained results, the outer water phase nucleic acid concentration of each measurement solution was calculated according to the standard addition method.
By using the quantification results of the total mRNA concentration and the mRNA concentration in the outer water phase that were obtained through the above steps, the mRNA encapsulation rate of the mRNA lipid nanoparticles was calculated according to the following Equation. […]

SMILES strings stand for the structures.

15 compounds from patent US20250345459A1, “COMPOUND OR SALT THEREOF, LIPID COMPOSITION, PHARMACEUTICAL COMPOSITION, AND DELIVERY CARRIER” (FUJIFILM Corporation, priority 2023, published 2025) can be followed below.

Consider `CCCCCCCCN(CCCCCCCCCC(=O)OCC(CCCCCC)CCCCCC)C(=O)OCCN(CCOC(=O)CCCCCCC)CCN(CC)CC` [Comparative Example 1, 2-hexyloctyl 3-ethyl-6-(2-(octanoyloxy)ethyl)-11-octyl-10-oxo-9-oxa-3,6,11-triazahenicosan-21-oate, reference compound], for which, in the data set with ICR mice, the “Relative amount of EPO protein (to Comparative Example 1)” value (“Relative amount of EPO protein” for short) is reported as 1.00. Further, the “Particle size (nm)” value in data set [1] was found to be 206 nm. In addition, the “Nucleic acid encapsulation rate (%)” value in the data set with EPO mRNA is 62%.
On to `CCCCCCN(CCCCCC(=O)OCC(CCCCC)CCCCC)C(=O)OCCN(CCOC(=O)N(CCCCCC)CCCCCC(=O)OCC(CCCCC)CCCCC)CCN(CC)CC` [Example 25, Bis(2-pentylheptyl) 12-(2-(diethylamino)ethyl)-7,17-dihexyl-8,16-dioxo-9,15-dioxa-7,12,17-triazatricosanedioate], for which the “Relative amount of EPO protein” value in the data set on ICR mice came to 3.56. Further, in data set [1], the “Particle size (nm)” value is 167 nm. Also, the “Nucleic acid encapsulation rate (%)” value in the data set on EPO mRNA worked out at 78%.
For `CCCCCCC(CCCCCC)COC(=O)CCCCN(CCCC)C(=O)OCCN(CCOC(=O)N(CCCC)CCCCC(=O)OCC(CCCCCC)CCCCCC)CCN(CC)CC` [Example 23, Bis(2-hexyloctyl) 6,16-dibutyl-11-(2-(diethylamino)ethyl)-7,15-dioxo-8,14-dioxa-6,11,16-triazahenicosanedioate], in that order: 1.61, 180 nm and 79%.
Consider `CCCCCC(CCCCC)COC(=O)CCCCN(CCC)C(=O)OCCN(CCCN(CC)CC)CCOC(=O)N(CCC)CCCCC(=O)OCC(CCCCC)CCCCC` [Example 16, Bis(2-pentylheptyl) 11-(3-(diethylamino)propyl)-7,15-dioxo-6,16-dipropyl-8,14-dioxa-6,11,16-triazahenicosanedioate], for which, in data set [1], the “Particle size (nm)” value was 187 nm. For the same compound, the “Nucleic acid encapsulation rate (%)” value with EPO mRNA is listed as 93%.
Consider `CCCCCCCCCCCOC(=O)CN(CC(=O)OCCCCCCCCCCC)C(=O)OCCN(CCOC(=O)N(CC(=O)OCCCCCCCCCCC)CC(=O)OCCCCCCCCCCC)CCN(CC)CC` [Example 33, Diundecyl 8-(2-(diethylamino)ethyl)-4,12-dioxo-3,13-bis(2-oxo-2-(undecyloxy)ethyl)-5,11-dioxa-3,8,13-triazapentadecanedioate], for which the “Relative amount of EPO protein” value in the data set on ICR mice was determined as 2.90. Besides, the “Particle size (nm)” value in data set [1] turned out to be 155 nm. The “Nucleic acid encapsulation rate (%)” value with EPO mRNA is 78%.
As for `CCCCCC(CCCCC)COC(=O)CCCCN(CCCC)C(=O)OCCN(CCOC(=O)N(CCCC)CCCCC(=O)OCC(CCCCC)CCCCC)CCN(CC)CC` [Example 21, Bis(2-pentylheptyl) 6,16-dibutyl-11-(2-(diethylamino)ethyl)-7,15-dioxo-8,14-dioxa-6,11,16-triazahenicosanedioate], the “Particle size (nm)” value in data set [1] was 230 nm. Moreover, the “Nucleic acid encapsulation rate (%)” value in the data set with EPO mRNA was determined as 64%.
As to `CCCCCC(CCCCC)COC(=O)CCCCN(CC(C)C)C(=O)OCCN(CCOC(=O)N(CCCCC(=O)OCC(CCCCC)CCCCC)CC(C)C)CCN(CC)CC` [Example 18, Bis(2-pentylheptyl) 11-(2-(diethylamino)ethyl)-6,16-diisobutyl-7,15-dioxo-8,14-dioxa-6,11,16-triazahenicosanedioate], the “Particle size (nm)” value in data set [1] amounted to 224 nm. For the same compound, the “Nucleic acid encapsulation rate (%)” value with EPO mRNA stood at 43%.
For `CCCCCCCCCCCCOC(=O)CN(CC(=O)OCCCCCCCCCCCC)C(=O)OCCN(CCOC(=O)N(CC(=O)OCCCCCCCCCCCC)CC(=O)OCCCCCCCCCCCC)CCN(CC)CC` [Example 32, didodecyl 8-(2-(diethylamino)ethyl)-3,13-bis(2-(dodecyloxy)-2-oxoethyl)-4,12-dioxo-5,11-dioxa-3,8,13-triazapentadecanedioate], in that order: 203 nm and 60%.
Turning to `CCCCCC(CCCCC)COC(=O)CCCCN(C(=O)OCCN(CCOC(=O)N(CCCCC(=O)OCC(CCCCC)CCCCC)C(C)C)CCN(CC)CC)C(C)C` [Example 13, Bis(2-pentylheptyl) 11-(2-(diethylamino)ethyl)-6,16-diisopropyl-7,15-dioxo-8,14-dioxa-6,11,16-triazahenicosanedioate], in data set [1], the “Particle size (nm)” value came to 188 nm. In addition, the “Nucleic acid encapsulation rate (%)” value in the data set on EPO mRNA was determined as 88%.
As for `CCCCCCCCCC(=O)OCCN(CCOC(=O)CCCCCCCCC)C(=O)OCCN(CCOC(=O)N(CCOC(=O)CCCCCCCCC)CCOC(=O)CCCCCCCCC)CCN(CC)CC` [Example 12, 2-(2-(2-(bis(2-decanoyloxyethyl)carbamoyloxy)ethyl-(2-(diethylamino)ethyl)amino)ethoxycarbonyl-(2-decanoyloxyethyl)amino)ethyl decanoate], the “Particle size (nm)” value in data set [1] is on record as 169 nm. In addition, the “Nucleic acid encapsulation rate (%)” value in the data set on EPO mRNA was determined as 62%.
For `CCCCCC(CCCCC)COC(=O)CCN(CCCC)C(=O)OCCN(CCOC(=O)N(CCCC)CCC(=O)OCC(CCCCC)CCCCC)CCN(CC)CC` [Example 6, Bis(2-pentylheptyl) 4,14-dibutyl-9-(2-(diethylamino)ethyl)-5,13-dioxo-6,12-dioxa-4,9,14-triazaheptadecanedioate], in that order: 183 nm and 58%.
For `CCCCCCCCCCCCCOC(=O)CN(CC(=O)OCCCCCCCCCCCCC)C(=O)OCCN(CCOC(=O)N(CC(=O)OCCCCCCCCCCCCC)CC(=O)OCCCCCCCCCCCCC)CCN(CC)CC` [Example 34, Ditridecyl 8-(2-(diethylamino)ethyl)-4,12-dioxo-3,13-bis(2-oxo-2-(tridecyloxy)ethyl)-5,11-dioxa-3,8,13-triazapentadecanedioate], in that order: 332 nm and 33%.
As to `CCCCCC(CCCCC)COC(=O)CCN(CCCC)C(=O)OCCN(CCCN(CC)CC)CCOC(=O)N(CCCC)CCC(=O)OCC(CCCCC)CCCCC` [Example 7, Bis(2-pentylheptyl) 4,14-dibutyl-9-(3-(diethylamino)propyl)-5,13-dioxo-6,12-dioxa-4,9,14-triazaheptadecanedioate], in data set [1], the “Particle size (nm)” value is recorded as 215 nm. For the same compound, the “Nucleic acid encapsulation rate (%)” value in the data set with EPO mRNA was determined as 73%.
In the case of `CCCCCC(CCCCC)COC(=O)CCCCN(C(=O)OCCN(CCCN(CC)CC)CCOC(=O)N(CCCCC(=O)OCC(CCCCC)CCCCC)C(C)C)C(C)C` [Example 14, Bis(2-pentylheptyl) 11-(3-(diethylamino)propyl)-6,16-diisopropyl-7,15-dioxo-8,14-dioxa-6,11,16-triazahenicosanedioate], the “Particle size (nm)” value in data set [1] turned out to be 185 nm. For the same compound, the “Nucleic acid encapsulation rate (%)” value in the data set with EPO mRNA was 97%.
Turning to `CCCCCC(CCCCC)COC(=O)CCCCN(CCC)C(=O)OCCN(CCOC(=O)N(CCC)CCCCC(=O)OCC(CCCCC)CCCCC)CCN(CC)CC` [Example 15, Bis(2-pentylheptyl) 11-(2-(diethylamino)ethyl)-7,15-dioxo-6,16-dipropyl-8,14-dioxa-6,11,16-triazahenicosanedioate], in data set [1], the “Particle size (nm)” value is given as 238 nm. The “Nucleic acid encapsulation rate (%)” value with EPO mRNA came to 79%.
